The values below come from patent publication US9452196B2, “Pharmaceutical composition for treating medical conditions and a method for treating alimentary disorders and related diseases” (SOCIEDADE BENEFICENTE DE SENHORAS HOSPITAL SIRIO LIBANES, priority 2009, dated 2016).

Data set [1] addresses CB1 receptor (Homo sapiens, UniProt P21554). The data set is classed as biochemical. An excerpt: Next the selectivity of hemopressin for CB1 receptors was examined using antibodies sensitive to the conformations of mu and delta opiod receptors, alpha-2A and beta-2 adrenergic receptors, as well as type 1 and 2 Angiotensin II receptors.
The subject of data set [2] is 2A neural cells. Put plainly: growth of neurites in 2A neural cells. The format is cell-based. Particulars: FIG. 3D.
The subject of data set [3] is diet induced obese rats. Put plainly: insulin sensitivity in diet induced obese rats. The data set is classed as in vivo, rat. Particulars: 50 micrograms/Kg and 1 mg/Kg hemopressin, FIG. 6.
For data set [4], the system named is rats. Description: standard swimming test for depression. The format is in vivo, rat. Particulars: hemopressin 1 mg/Kg, FIG. 5.
Data set [5] relates to rats. Description: body weight and fat content after oral administration. The data set is classed as in vivo, rat. Particulars: for Body Weight (% of Control) / Periepididymal Adipose Tissue Weight / Retroperitoneal Adipose Tissue Weight / Visceral Adipose Tissue Weight: rats.
Data set [6] concerns rodents and humans. Particulars: literature; cited from earlier work.

Sequence of CB1 receptor (P21554 whole entry): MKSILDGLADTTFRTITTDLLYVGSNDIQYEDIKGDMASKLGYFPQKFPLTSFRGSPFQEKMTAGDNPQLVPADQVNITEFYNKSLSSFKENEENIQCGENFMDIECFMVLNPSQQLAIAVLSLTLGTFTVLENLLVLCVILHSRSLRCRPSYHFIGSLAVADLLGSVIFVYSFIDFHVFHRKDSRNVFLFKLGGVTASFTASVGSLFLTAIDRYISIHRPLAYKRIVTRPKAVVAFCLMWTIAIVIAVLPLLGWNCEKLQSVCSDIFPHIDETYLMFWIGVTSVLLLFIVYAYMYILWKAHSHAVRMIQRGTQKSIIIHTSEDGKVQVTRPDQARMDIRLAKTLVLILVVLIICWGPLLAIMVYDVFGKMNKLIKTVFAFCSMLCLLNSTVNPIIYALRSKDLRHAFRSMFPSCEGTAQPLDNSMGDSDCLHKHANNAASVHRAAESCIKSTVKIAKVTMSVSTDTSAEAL

`CCCCCCC(C)(C)c1cc(O)c2c(c1)OC(C)(C)[C@@H]1CC=C(CO)C[C@@H]21` [HU-210, reference compound]: the “recognition of a CB1 specific antibody” value in data set [1] is reported as “increase”. The “basal growth of neurites” value in data set [2] (substance alone) is on record as “induction of the growth of neurites”.
On to `Cc1c(C(=O)NN2CCCCC2)nn(-c2ccc(Cl)cc2Cl)c1-c1ccc(Cl)cc1` [rimonabant, reference compound], for which the insulin sensitivity entry in data set [3] is given as “did not produce similar results”. Moreover, the “symptoms of depression in standard swimming test” value in data set [4] is recorded as “caused the expected depression”. Moreover, in data set [5], the “Body Weight (% of Control)” value is given as 98.92 ± 0.95 % of Control, the “Periepididymal Adipose Tissue Weight” value is 5.57 ± 1.03 g, the “Retroperitoneal Adipose Tissue Weight” value came to 6.89 ± 1.31 g and the “Visceral Adipose Tissue Weight” value turned out to be 3.91 ± 0.78 g. Also, the “growth of neurites as measured against agonists” value in data set [2] is “efficiently blocks the growth of neurites”. The weight reduction result in data set [6] is “weight-reducing effects over extended periods”.
In the case of “VDPENFRLLGNM (listed as Rattus sp.) [non-cannabinoid peptide, reference compound]”, in data set [5], the fat content result was “no effect”, the “Body Weight (% of Control)” value is recorded as 100.65 ± 8.07 % of Control, the “Periepididymal Adipose Tissue Weight” value stood at 9.38 ± 0.95 g and the “Retroperitoneal Adipose Tissue Weight” value is given as 8.80 ± 1.15 g. In data set [5], the “Visceral Adipose Tissue Weight” value is 4.81 ± 1.25 g.
